Experimental data reported in BindingDB's records for doi:10.1124/jpet.103.049395 (Lcg Bioscience, 2003).
Where a SMILES comes first, the peptide text is derived from it. Bridges are numbered along the chain shown (N, C = ends). [ ]: non-standard residue; d: D form. Orn = NCCC[C@H](N)C(=O)O; Mpa = O=C(O)CCS

Key:
[1] = target: Vasopressin V2 receptor (Homo sapiens, UniProt P30518)
[2] = target: T1, Vasopressin V1b receptor (Homo sapiens, UniProt P47901)
T1 sequence (P47901 whole entry): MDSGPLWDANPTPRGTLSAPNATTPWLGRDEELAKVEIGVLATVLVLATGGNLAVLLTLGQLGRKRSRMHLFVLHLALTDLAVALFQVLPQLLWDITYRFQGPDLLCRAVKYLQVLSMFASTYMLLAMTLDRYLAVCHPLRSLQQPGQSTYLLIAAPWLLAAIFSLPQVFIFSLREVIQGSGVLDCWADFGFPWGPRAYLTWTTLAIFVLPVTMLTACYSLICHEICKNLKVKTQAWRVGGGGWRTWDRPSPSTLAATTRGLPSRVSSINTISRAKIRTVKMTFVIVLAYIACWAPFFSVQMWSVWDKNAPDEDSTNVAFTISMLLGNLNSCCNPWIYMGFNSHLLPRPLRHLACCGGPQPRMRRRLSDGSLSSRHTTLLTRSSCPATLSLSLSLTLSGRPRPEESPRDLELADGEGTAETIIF

[3] = target: Vasopressin V1a receptor (Homo sapiens, UniProt P37288)
[4] = target: T2, Oxytocin receptor (Homo sapiens, UniProt P30559)
T2 sequence (P30559 whole entry): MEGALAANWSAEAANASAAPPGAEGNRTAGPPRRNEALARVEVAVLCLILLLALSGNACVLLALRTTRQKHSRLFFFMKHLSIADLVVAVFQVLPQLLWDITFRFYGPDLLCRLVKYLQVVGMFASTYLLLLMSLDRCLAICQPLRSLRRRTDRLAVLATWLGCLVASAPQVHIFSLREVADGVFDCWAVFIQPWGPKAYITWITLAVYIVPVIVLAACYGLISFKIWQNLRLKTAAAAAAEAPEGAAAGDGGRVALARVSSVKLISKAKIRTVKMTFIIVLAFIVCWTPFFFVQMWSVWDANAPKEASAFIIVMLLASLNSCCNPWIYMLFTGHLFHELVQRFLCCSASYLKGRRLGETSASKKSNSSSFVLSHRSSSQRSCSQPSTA

[5] = target: T3, Oxytocin receptor (Rattus norvegicus, UniProt P70536)
T3 sequence (P70536 whole entry): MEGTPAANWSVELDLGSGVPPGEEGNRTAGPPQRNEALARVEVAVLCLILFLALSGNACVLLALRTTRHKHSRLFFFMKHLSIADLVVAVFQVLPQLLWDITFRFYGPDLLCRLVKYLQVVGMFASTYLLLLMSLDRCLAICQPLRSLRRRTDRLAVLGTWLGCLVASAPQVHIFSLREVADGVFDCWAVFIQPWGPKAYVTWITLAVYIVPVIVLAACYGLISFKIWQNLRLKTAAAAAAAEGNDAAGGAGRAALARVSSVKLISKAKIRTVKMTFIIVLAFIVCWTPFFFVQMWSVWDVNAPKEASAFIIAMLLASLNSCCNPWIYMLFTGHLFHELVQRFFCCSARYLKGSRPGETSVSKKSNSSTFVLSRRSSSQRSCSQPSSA

Chain of Vasopressin V1a receptor (P37288 whole entry): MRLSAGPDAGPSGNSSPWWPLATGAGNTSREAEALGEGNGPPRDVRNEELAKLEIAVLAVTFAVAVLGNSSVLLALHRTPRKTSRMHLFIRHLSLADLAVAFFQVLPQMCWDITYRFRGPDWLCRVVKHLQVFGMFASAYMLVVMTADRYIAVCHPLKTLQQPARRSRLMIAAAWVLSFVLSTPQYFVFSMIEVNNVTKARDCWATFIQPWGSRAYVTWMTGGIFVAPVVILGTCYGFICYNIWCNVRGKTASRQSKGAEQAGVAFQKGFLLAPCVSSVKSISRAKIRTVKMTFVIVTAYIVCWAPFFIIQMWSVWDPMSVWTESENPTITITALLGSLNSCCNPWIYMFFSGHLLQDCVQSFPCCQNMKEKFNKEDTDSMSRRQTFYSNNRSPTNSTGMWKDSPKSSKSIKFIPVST
Chain of Vasopressin V2 receptor (P30518 whole entry): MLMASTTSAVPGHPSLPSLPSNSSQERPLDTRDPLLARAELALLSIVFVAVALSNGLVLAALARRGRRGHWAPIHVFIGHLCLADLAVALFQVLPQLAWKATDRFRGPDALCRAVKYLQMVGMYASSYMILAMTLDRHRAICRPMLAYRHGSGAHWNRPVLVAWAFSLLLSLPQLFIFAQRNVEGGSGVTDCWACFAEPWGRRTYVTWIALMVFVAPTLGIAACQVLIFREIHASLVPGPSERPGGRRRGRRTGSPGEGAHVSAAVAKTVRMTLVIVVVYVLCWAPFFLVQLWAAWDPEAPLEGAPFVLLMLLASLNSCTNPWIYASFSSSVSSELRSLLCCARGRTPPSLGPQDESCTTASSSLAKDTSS

Row | Ki [1] | Ki [2] | Ki [3] | Ki [4] | Ki [5] | Compound
1 | 954 nM | 657 nM | 3.5 nM | 81 nM |  | CCOc1ccc(C[C@H]2NC(=O)CCSSC[C@@H](C(=O)N3CCC[C@H]3C(=O)N[C@@H](CCCN)C(=O)NCC(N)=O)NC(=O)[C@H](CC(N)=O)NC(=O)[C@H]([C@@H](C)O)NC(=O)[C@H]([C@@H](C)CC)NC2=O)cc1 [CAS_90779-69-4] ([Mpa][dY](Et)ITNCP[Orn]G-NH2; disulfide 1-6)
2 | > 10000 nM | > 10000 nM | 170 nM | 17 nM | 135 nM | CO/N=C1/C[C@@H](C(=O)NC[C@@H](O)c2ccccc2)N(C(=O)c2ccc(-c3ccccc3C)cc2)C1 [(2S,4Z)-N-[(2S)-2-hydroxy-2-phenylethyl]-4-(methoxyimino)-1-[(2'-methyl[1,1'-biphenyl]-4-yl)carbonyl]-2-pyrrolidinecarboxamide]
